Molecules are shown by their SMILES. Where “and” joins values, the source holds several entries; their conditions need not be identical. Equal entries are not always repeated.

Sequence of Glycogen synthase kinase-3 alpha (P49840 whole entry): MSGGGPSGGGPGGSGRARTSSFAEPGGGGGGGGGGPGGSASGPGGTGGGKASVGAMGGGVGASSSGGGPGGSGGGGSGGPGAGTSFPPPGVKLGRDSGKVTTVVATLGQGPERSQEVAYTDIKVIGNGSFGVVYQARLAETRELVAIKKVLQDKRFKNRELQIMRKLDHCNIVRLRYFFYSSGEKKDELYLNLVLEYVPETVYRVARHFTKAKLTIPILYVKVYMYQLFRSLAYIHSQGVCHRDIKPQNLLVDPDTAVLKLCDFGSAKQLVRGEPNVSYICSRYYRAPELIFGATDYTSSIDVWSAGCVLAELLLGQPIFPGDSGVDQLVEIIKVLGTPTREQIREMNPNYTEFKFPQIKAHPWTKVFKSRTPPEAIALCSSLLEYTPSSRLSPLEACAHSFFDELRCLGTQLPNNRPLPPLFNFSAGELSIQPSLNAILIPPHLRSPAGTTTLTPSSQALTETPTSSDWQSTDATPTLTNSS

The experiment has as its target Glycogen synthase kinase-3 alpha (Homo sapiens, UniProt P49840). In words: TR-FRET Assay. As to the method:
The assay was performed in a white, 384 well, low volume, flat bottom plate (Grenier). […] The kinase activity was quenched with 2 μL of 250 mM EDTA. A 10 μL volume of 40 nM Strepavidin-d2, 2 nM Tb2+-pSer641 antibody in TR-FRET Detection Buffer (Invitrogen) was then added.
(In general: In TR-FRET formats the signal depends on donor and acceptor labels being close together.)
One may read the IC50 as the concentration at which inhibition is half-maximal. `CC[C@@]1(c2cccc(OC(C)C)c2)C2=CN=NC2NC2=C1C(=O)CC(C)(C)C2` (stereo not given in full) [US20250313563, Compound 811563] returned an IC50 of 1 to 5 µM. Under `CC[C@@]1(c2cccc(N3CCCC3)c2)C2=C(CC(C)(C)CC2=O)NC2N=NC(C(F)(F)F)=C21` (stereo not given in full) [US20250313563, Compound 819575] stands 0.1 to 1 µM. Under `CC[C@@]1(c2cccc(C(F)F)c2)C2=CN=NC2NC2=C1C(=O)CC(C)(C)C2` (stereo not given in full) [US20250313563, Compound 826716] stands 0.1 to 1 µM; under `CC[C@@]1(c2cccc(-c3ccnc(C)c3)c2)C2=CN=NC2NC2=C1C(=O)CC(C)(C)C2` (stereo not given in full) [US20250313563, Compound 865170], 1 to 5 µM.

For `CC[C@@]1(c2cccc(N(C)c3ccncc3)c2)C2=CN=NC2NC2=C1C(=O)CC(C)(C)C2` (stereo not given in full) [US20250313563, Compound 874261], the IC50 lay within 0.1 to 1 µM. Under `CC[C@@]1(c2cccc(N(C)c3cccnc3)c2)C2=CN=NC2NC2=C1C(=O)CC(C)(C)C2` (stereo not given in full) [US20250313563, Compound 874299] stands 0.1 to 1 µM. Molecule `CC[C@@]1(c2cccc(-c3ccncc3)c2)C2=CN=NC2NC2=C1C(=O)C[C@@H](C)C2` (stereo not given in full) [US20250313563, Compound 874315] had an IC50 of 1 to 5 µM.

`CC[C@@]1(c2cccc(-n3ccnc3)c2)C2=CN=NC2NC2=C1C(=O)CC(C)(C)C2` (stereo not given in full) [US20250313563, Compound 874533] yielded an IC50 of 0.1 to 1 µM. Take `CC[C@@]1(c2cccc(N(C)c3cccnn3)c2)C2=CN=NC2NC2=C1C(=O)CC(C)(C)C2` (stereo not given in full) [US20250313563, Compound 911976]: the IC50 lay in the range of 0.1 to 1 µM.

In turn, `CC[C@@]1(c2cccc(N(C)c3ncccn3)c2)C2=CN=NC2NC2=C1C(=O)CC(C)(C)C2` (stereo not given in full) [US20250313563, Compound 911981] yielded a 50% inhibitory concentration (IC50) of under 0.1 µM. Under `CC[C@@]1(c2cccc(-c3ccnc(OC)c3)c2)C2=CN=NC2NC2=C1C(=O)CC(C)(C)C2` (stereo not given in full) [US20250313563, Compound 911989] stands 1 to 5 µM. In turn, `CC[C@@]1(c2cccc(-c3c(C)nn(C)c3C)c2)C2=CN=NC2NC2=C1C(=O)CC(C)(C)C2` (stereo not given in full) [US20250313563, Compound 911991] registered an IC50 of 0.1 to 1 µM. For the molecule `CC[C@@]1(c2cccc(N3CCc4ccncc43)c2)C2=CN=NC2NC2=C1C(=O)CC(C)(C)C2` (stereo not given in full) [US20250313563, Compound 912004], the IC50 lay within 1 to 5 µM. Then `CC[C@]1(c2cccc([C@H]3CCOC(C)(C)C3)c2)C2=CN=NC2NC2=C1C(=O)CC(C)(C)C2` (stereo not given in full) [US20250313563, Compound 912088], with 0.1 to 1 µM. In turn, `CC[C@@]1(c2cccc([C@H]3CCOC(C)(C)C3)c2)C2=CN=NC2NC2=C1C(=O)CC(C)(C)C2` (stereo not given in full) [US20250313563, Compound 912090] had an IC50 of 0.1 to 1 µM. Then `CC[C@@]1(c2cccc(-c3cn(C)nc3C)c2)C2=C(CC(C)(C)CC2=O)NC2N=NC(C)=C21` (stereo not given in full) [US20250313563, Compound 913034], with 1 to 5 µM. Molecule `CC[C@]1(c2cccc(-c3ccn(C)n3)c2)C2=C(CC(C)(C)CC2=O)NC2N=NC(C)=C21` (stereo not given in full) [US20250313563, Compound 913039] yielded an IC50 of 1 to 5 µM. For `CC[C@]1(c2cccc(-c3ccnc(C(F)(F)F)c3)c2)C2=C(CC(C)(C)CC2=O)NC2N=NC(C)=C21` (stereo not given in full) [US20250313563, Compound 913049], the IC50 was 0.1 to 1 µM. Molecule `CC[C@]1(c2cccc(-c3ccnc(C)c3)c2)C2=C(CC(C)(C)CC2=O)NC2N=NC(C)=C21` (stereo not given in full) [US20250313563, Compound 913051] came in with an IC50 of 0.1 to 1 µM. Under `CC[C@@]1(c2cccc(S(=O)(=O)CC3CC3)c2)C2=CN=NC2NC2=C1C(=O)CC(C)(C)C2` (stereo not given in full) [US20250313563, Compound 917151] stands 1 to 5 µM; under `COC(=O)C1CCC2(CC1)C1=C(N=NC1)NC1=C2C(=O)CC(C)(C)C1` (stereo not given) [US20250313563, Compound 918277], under 0.1 µM; under `CC[C@@]1(c2cccc(N3C[C@@H](C)[C@@H](C)C3)c2)C2=CN=NC2NC2=C1C(=O)CC(C)(C)C2` (stereo not given in full) [US20250313563, Compound 918327], 1 to 5 µM.

On to `CC[C@]1(c2cccc(-c3cc(C)ncc3F)c2)C2=CN=NC2NC2=C1C(=O)CC(C)(C)C2` (stereo not given in full) [US20250313563, Compound 927339], for which the IC50 was 1 to 5 µM. Then `CC[C@@]1(c2cccc(-c3ccnc(C)c3C)c2)C2=CN=NC2NC2=C1C(=O)CC(C)(C)C2` (stereo not given in full) [US20250313563, Compound 943517], with 0.1 to 1 µM. Under `CC[C@]1(c2cccc(S(=O)(=O)C3CCCCC3)c2)C2=CN=NC2NC2=C1C(=O)CC(C)(C)C2` (stereo not given in full) [US20250313563, Compound 943547] stands 1 to 5 µM; under `CC[C@@]1(c2cccc(-c3ccncc3C(F)(F)F)c2)C2=CN=NC2NC2=C1C(=O)CC(C)(C)C2` (stereo not given in full) [US20250313563, Compound 943913], under 0.1 µM. Then `Cn1ccc(S(=O)(=O)N2CCC3(CC2)C2=C(N=NC2)NC2=C3C(=O)NC(C)(C)C2)n1` [US20250313563, Compound 943961], with < 0.1 µM and 0.1 to 1 µM. Turning to `CC[C@@]1(c2cccc(C(F)(F)F)c2)C2=CN=NC2NC2=C1C(=O)N[C@H](c1ccccc1)C2` (stereo not given in full) [US20250313563, Compound 945363], the IC50 is 1 to 5 µM. Then `CC[C@@]1(c2cccc(C(F)(F)F)c2)C2=CN=NC2NC2=C1C(=O)NC[C@@H]2C` (stereo not given in full) [US20250313563, Compound 945384], with 1 to 5 µM; and `CC[C@@]1(c2cccc(-c3cnn4c3CCCC4)c2)C2=CN=NC2NC2=C1C(=O)CC(C)(C)C2` (stereo not given in full) [US20250313563, Compound 945544], with 0.1 to 1 µM. Then `CCc1cccc(N(C)c2cccc([C@]3(CC)C4=CN=NC4NC4=C3C(=O)CC(C)(C)C4)c2)n1` (stereo not given in full) [US20250313563, Compound 945726], with 1 to 5 µM. As for `CC[C@]1(c2cccc(C(F)(F)F)c2)C2=CN=NC2NC2=C1C(=O)N[C@@H](C(C)(C)C)C2` (stereo not given in full) [US20250313563, Compound 945921], the IC50 fell in the range of 1 to 5 µM. Then `CC[C@@]1(c2cccc(Oc3cncnc3)c2)C2=CN=NC2NC2=C1C(=O)CC(C)(C)C2` (stereo not given in full) [US20250313563, Compound 945939], with 0.1 to 1 µM; and `CC[C@@]1(c2cccc(Nc3ncccn3)c2)C2=CN=NC2NC2=C1C(=O)CC(C)(C)C2` (stereo not given in full) [US20250313563, Compound 945958], with 1 to 5 µM. `CC[C@]1(c2cccc(S(=O)(=O)C3COC3)c2)C2=CN=NC2NC2=C1C(=O)CC(C)(C)C2` (stereo not given in full) [US20250313563, Compound 946003] had an IC50 of 0.1 to 1 µM. Under `CC[C@]1(c2cccc(S(=O)(=O)C3CC3)c2)C2=CN=NC2NC2=C1C(=O)NC(C)(C)C2` (stereo not given in full) [US20250313563, Compound 946004] stands 0.1 to 1 µM.

`CCn1nccc1-c1cccc([C@@]2(CC)C3=CN=NC3NC3=C2C(=O)CC(C)(C)C3)c1` (stereo not given in full) [US20250313563, Compound 946090] had an IC50 of 0.1 to 1 µM. Under `CC[C@]1(c2cccc(-c3ccnn3C(C)C)c2)C2=CN=NC2NC2=C1C(=O)CC(C)(C)C2` (stereo not given in full) [US20250313563, Compound 946092] stands 1 to 5 µM.

As to `CC[C@]1(c2cccc(-c3ccnn3CCC(C)C)c2)C2=CN=NC2NC2=C1C(=O)CC(C)(C)C2` (stereo not given in full) [US20250313563, Compound 946096], the IC50 lay within 0.1 to 1 µM. Then `CC[C@]1(c2cccc(-c3ccnc(C)c3)c2)C2=CN=NC2NC2=C1C(=O)CC(C)(C)[C@@H]2F` (stereo not given in full) [US20250313563, Compound 946101], with 1 to 5 µM; and `CC[C@@]1(c2cccc(-c3ccnc(C)c3)c2)C2=CN=NC2NC2=C1C(=O)CC(C)(C)[C@@H]2F` (stereo not given in full) [US20250313563, Compound 946102], with 1 to 5 µM. Then `CC[C@]1(c2cccc(-c3ccnc(C)c3)c2)C2=CN=NC2NC2=C1C(=O)C[C@]1(CCOC1)C2` (stereo not given in full) [US20250313563, Compound 947412], with 1 to 5 µM. Under `CC[C@]1(c2cccc(-c3cnn4c3CCCC4)c2)C2=CN=NC2NC2=C1C(=O)NC(C)(C)C2` (stereo not given in full) [US20250313563, Compound 947415] stands 1 to 5 µM. As for `CC[C@]1(c2cccc(Oc3ncccn3)c2)C2=CN=NC2NC2=C1C(=O)CC(C)(C)C2` (stereo not given in full) [US20250313563, Compound 947818], the IC50 was 0.1 to 1 µM. Under `CC[C@]1(c2cccc(-c3ccnn3C)c2)C2=CN=NC2NC2=C1C(=O)N[C@@](C)(COC)C2` (stereo not given in full) [US20250313563, Compound 947907] stands 1 to 5 µM; under `CC[C@]1(c2cccc(-c3ccnn3C)c2)C2=CN=NC2NC2=C1C(=O)N[C@]1(CCOC1)C2` (stereo not given in full) [US20250313563, Compound 948014], 0.1 to 1 µM; under `CC[C@]1(c2cccc(-c3ccncc3C)c2)C2=CN=NC2NC2=C1C(=O)NC1(CCCC1)C2` (stereo not given in full) [US20250313563, Compound 948021], 0.1 to 1 µM.

For `CC[C@]1(c2cccc(-c3ccncc3C)c2)C2=CN=NC2NC2=C1C(=O)NC(C)(COC)C2` (stereo not given in full) [US20250313563, Compound 948127], the IC50 was 0.1 to 1 µM. Then `CC[C@]1(c2cccc(-c3c(F)cncc3OC)c2)C2=CN=NC2NC2=C1C(=O)NC(C)(C)C2` (stereo not given in full) [US20250313563, Compound 948145], with 0.1 to 1 µM; and `CC[C@@]1(c2cccc(-c3ccnc(C)c3)c2)C2=CN=NC2NC2=C1C(=O)N[C@]1(CCOC1)C2` (stereo not given in full) [US20250313563, Compound 948148], with 1 to 5 µM; and `CC[C@]1(c2cccc(-c3ccnn3C)c2)C2=CN=NC2NC2=C1C(=O)N[C@@]1(CCCOC1)C2` (stereo not given in full) [US20250313563, Compound 948366], with 1 to 5 µM. Consider `CC[C@]1(c2cccc(-c3ccncc3C)c2)C2=CN=NC2NC2=C1C(=O)NC1(CCOCC1)C2` (stereo not given in full) [US20250313563, Compound 948367], for which the IC50 is 0.1 to 1 µM.

Regarding `CC[C@@]1(c2cccc(C(F)(F)F)c2)C2=CN=NC2NC2=C1C(=O)N(c1cncnc1)CC2` (stereo not given in full) [US20250313563, Compound 948380], the IC50 lay in the range of 0.1 to 1 µM. Under `CC[C@]1(c2cccc(-c3c(F)cncc3F)c2)C2=CN=NC2NC2=C1C(=O)NC(C)(C)C2` (stereo not given in full) [US20250313563, Compound 948514] stands 1 to 5 µM. Then `CC[C@]1(c2cccc(-c3ccnn3C)c2)C2=CN=NC2NC2=C1C(=O)NC1(CCC1)C2` (stereo not given in full) [US20250313563, Compound 948522], with 0.1 to 1 µM.
